The target of this test is LeuT (Aquifex aeolicus, UniProt O67854). As to the kind of experiment: scintillation proximity assay, displacement of [3H]leucine by alanine. As to conditions: Na+ at its K0.5 (11.2 mM), pH 7.4 binding buffer, DDM. (Scintillation proximity formats need no separation of bound from free tracer.)

These results are taken from paper doi:10.1101/283176v2 (biorxiv, 2018).

The compound `C[C@H](N)C(=O)O` [alanine] yielded a KI-ala of 2560 ± 510 nM.
